Assays:
[1] = system: CTX-TNA2 astrocyte cell line; assay: Apoptosis occurrence, Annexin-V/PI flow cytometry; format: cell-based, rat; settings: challenged with H2O2; CBD 1000 nM, CBG 1 nM; 24 h, lasting up to 48 h
Procedure: The CTX-TNA2 rat astrocytes were purchased from the European Collection of Cell Cultures (ECACC), Sigma-Aldrich, Milan, Italy, and cultured as already indicated. Cells were grown in Dulbecco’s Modified Eagle Medium supplemented with 10% of FBS and penicillin–streptomycin (100 µgmL^−1) (all from EuroClone SpA Life-Sciences-Division, Milan, Italy) and maintained in a humified atmosphere of 5% CO2 at 37 °C. Cells were subcultivated at a ratio of 1.2 to 1.8 and the medium was changed every 3 days. CTX-TNA2 astrocytes were plated in 25 or 75 cm^2 flasks, according to experimental needing and cells between the eight and the 15 passage were used.
When indicated, the cells were treated with H2O2 300 µM for three hours and different concentrations of CBD (1–1000 nM) and CBG (1–1000 nM). The stock solutions were diluted in cell medium to the point that the concentration of DMSO in the samples was less than 0.0003%. Therefore, the addition of DMSO to the control samples was not necessary.
A FITC Annexin-V apoptosis detection kit (BD Pharmingen, San Diego, CA, USA) was used to assess apoptosis, according to the manufacturer’s instructions. […] After the addition of 200 µL of binding buffer, samples were analyzed with a Cytoflex flow cytometer with the FL1 and FL3 detector in a log mode, using the Cytoexpert analysis software (both from Beckmann Coulter). […]

synaptotagmin-1 (Syt 1) = assay: Untargeted proteomic analysis of cortexes, Syt 1; parameters: species or system rat; settings: CBD 1000 nM, CBG 1 nM
Procedure: (§1) Sprague–Dawley rats (200–250 g) were sacrificed by CO2 inhalation (Italian Health Ministry authorization N. F4738.N.XTQ, delivered on 11th November 2018) and isolated prefrontal cortex specimens were immediately explanted and incubated in thermostatic shaking bath at 37 °C for 1 h (incubation period), in Krebs–Ringer buffer at the following K^+ concentrations:
(§2) Cortexes were stimulated with CBD (1000 nM) and CBD (1 nM). Afterwards, specimens were homogenized in perchloric acid solution (0.05 M) for the extraction and quantification of nitrites, via the aforementioned colorimetric Griess assay, and serotonin (5-HT), 5-hydroxyindoleacetic (5HIIA),3-hydroxykinurenine (3-HK) and kinurenic acid (KA) (ng/mg wet tissue) via high performance liquid chromatography analysis. Additionally, an untargeted proteomic analysis was carried out on the cortex homogenate. The analytical protocols for 5-HT, 5HIIA, 3-HK, KA and protein level determinations are described below. […]
(§3) After protein quantification, a volume corresponding to 50 μg of proteins was loaded onto a Nanosep 10-kDa-cutoff filter (Pall Corporation, Michigan, USA) and digested according to the protocol we routinely use in our laboratory, adapted from Distler et al. Briefly, the sample was washed twice with 200 μL urea buffer (8M urea, 100 mM Tris pH 8.5 in milliQ water) to remove the detergents present in the lysis buffer. […]

syntaxin 1b (Stx 1b) = assay: Untargeted proteomic analysis of cortexes, Stx 1b; parameters: species or system rat; settings: CBD 1000 nM, CBG 1 nM
Procedure: as §1, §2, §3

Row | Compound | early apoptosis (Annexin-Vpos/PIneg cells) [1] | effect on K+ 60 mM-induced reduction in Syt 1 level (synaptotagmin-1 (Syt 1)) | effect on K+ 60 mM-induced reduction in Stx 1b level (syntaxin 1b (Stx 1b))
1 | CCCCCc1cc(O)c(C/C=C(\C)CCC=C(C)C)c(O)c1 [CBG, cannabigerol] | reduce early apoptosis | completely ineffective | completely ineffective
2 | C=C(C)[C@@H]1CCC(C)=C[C@H]1c1c(O)cc(CCCCC)cc1O [CBD, Cannabidiol] | reduce early apoptosis | blocking the downregulation | blocking the downregulation
